For this experiment, the target named is human APJ receptor (Homo sapiens (Human), UniProt P35414). Kind of experiment: [35S]GTPγS binding assay on membranes from CHO cells stably expressing human APJ receptor. The settings on record: membranes of CHO cells stably expressing human APJ receptor, read-out: Activity hAPJ SPA EC50 IP. Type of experiment: biochemical. An outline of the steps:
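[35S]GTPγS binding measured on membranes from CHO cells stably expressing FLAG-tagged human APJ, with GDP, MgCl2 and NaCl levels optimized beforehand. Incubation 90 min at RT, imager read-out; EC50 from non-linear regression, averaged over several independent experiments.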
(GTPγS is a poorly hydrolysed GTP analogue; its binding reports G protein activation.)
Sequence of human APJ receptor (P35414 whole entry): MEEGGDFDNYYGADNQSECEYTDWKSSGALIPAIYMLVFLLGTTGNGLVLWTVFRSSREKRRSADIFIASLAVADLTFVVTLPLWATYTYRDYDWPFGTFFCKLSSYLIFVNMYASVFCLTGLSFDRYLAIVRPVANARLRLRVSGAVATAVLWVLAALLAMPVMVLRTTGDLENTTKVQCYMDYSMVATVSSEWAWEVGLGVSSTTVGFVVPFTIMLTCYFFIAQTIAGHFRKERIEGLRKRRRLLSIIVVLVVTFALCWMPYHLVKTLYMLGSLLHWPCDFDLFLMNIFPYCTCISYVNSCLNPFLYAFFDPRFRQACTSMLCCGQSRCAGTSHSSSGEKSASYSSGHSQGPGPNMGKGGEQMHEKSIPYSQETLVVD
By EC50 is commonly meant the concentration giving half of the maximal effect. For `CCc1cc(Cn2c(NS(=O)(=O)[C@@H](C)[C@H](OC)c3ncc(Cl)cn3)nnc2-c2cccc(OC)n2)on1` [Example 292.0, (1R,2S)-1-(5-Chloropyrimidin-2-yl)-N-(4-((3-ethylisoxazol-5-yl)methyl)-5-(6-methoxypyridin-2-yl)-4H-1,2,4-triazol-3-yl)-1-methoxypropane-2-sulfonamide], the EC50 turned out to be 2.4 nM.

For `COc1cccc(-c2nnc(NS(=O)(=O)[C@@H](C)[C@H](OC)c3ncc(Cl)cn3)n2[C@@H](C)c2c(C)noc2C)n1` (racemic) [Example 309.0, (1R,2S)-1-(5-chloropyrimidin-2-yl)-N-(4-((R)-1-(3,5-dimethylisoxazol-4-yl)ethyl)-5-(6-methoxypyridin-2-yl)-4H-1,2,4-triazol-3-yl)-1-methoxypropane-2-sulfonamide or (1R,2S)-1-(5-chloropyrimidin-2-yl)-N-(4-((S)-1-(3,5-dimethylisoxazol-4-yl)ethyl)-5-(6-methoxypyridin-2-yl)-4H-1,2,4-triazol-3-yl)-1-methoxypropane-2-sulfonamide], the EC50 worked out at 9.2 nM.

Consider `COc1cccc(-c2nnc(NS(=O)(=O)[C@@H](C)[C@@H](OC(C)C)c3ncc(C)cn3)n2[C@@H](C)[C@H]2CCCO2)n1` (single isomer, unassigned) [Example 275.0], for which the EC50 worked out at 18 nM.

As to `CC[C@@H](c1c(C)noc1C)n1c(NS(=O)(=O)[C@@H](C)[C@H](C)c2ncc(Cl)cn2)nnc1-c1cccc(OC)n1` (single isomer, unassigned) [Example 224.0, (2S,3R)-3-(5-chloro-2-pyrimidinyl)-N-(4-((1S)-1-(3,5-dimethyl-1,2-oxazol-4-yl)propyl)-5-(6-methoxy-2-pyridinyl)-4H-1,2,4-triazol-3-yl)-2-butanesulfonamide or (2S,3R)-3-(5-chloro-2-pyrimidinyl)-N-(4-((1R)-1-(3,5-dimethyl-1,2-oxazol-4-yl)propyl)-5-(6-methoxy-2-pyridinyl)-4H-1,2,4-triazol-3-yl)-2-butanesulfonamide], the EC50 amounted to 13 nM.

As to `COCC(COC)n1c(NS(=O)(=O)[C@@H](C)[C@H](OC)c2cnc(C)cn2)nnc1-c1cccc(OC)n1` [Example 103.0], the EC50 worked out at 15 nM.

`COc1cccc(-c2nnc(NS(=O)(=O)[C@@H](C)[C@H](OC)c3ncc(Cl)cn3)n2C2(CF)CC2)n1` [Example 106.0]: the concentration for a half-maximal effect (EC50) amounted to 0.38 nM.

In the case of `COc1cccc(-c2nnc(NS(=O)(=O)[C@@H](C)[C@H](OC)c3ncc(C)cn3)n2C2CC2)n1` [Example 120.0], the EC50 was 24 nM.

`COc1cccc(-c2nnc(NS(=O)(=O)[C@@H](C)[C@H](OC)c3cnc(C)cn3)n2Cc2cc(C(F)(F)F)no2)n1` [Example 203.0, (1R,2S)-1-methoxy-N-(5-(6-methoxy-2-pyridinyl)-4-((3-(trifluoromethyl)-1,2-oxazol-5-yl)methyl)-4H-1,2,4-triazol-3-yl)-1-(5-methyl-2-pyrazinyl)-2-propanesulfonamide]: the EC50 was found to be 56 nM.

On to `COc1cccc(-c2nnc(NS(=O)(=O)[C@@H](C)[C@H](C)c3ncc(Cl)cn3)n2[C@H](c2conc2C)C2CC2)n1` (single isomer, unassigned) [Example 229.0, (2S,3R)-3-(5-chloro-2-pyrimidinyl)-N-(4-((S)-cyclopropyl(3-methyl-1,2-oxazol-4-yl)methyl)-5-(6-methoxy-2-pyridinyl)-4H-1,2,4-triazol-3-yl)-2-butanesulfonamide or (2S,3R)-3-(5-chloro-2-pyrimidinyl)-N-(4-((R)-cyclopropyl(3-methyl-1,2-oxazol-4-yl)methyl)-5-(6-methoxy-2-pyridinyl)-4H-1,2,4-triazol-3-yl)-2-butanesulfonamide], for which the EC50 turned out to be 1.2 nM.

As to `COc1cnc([C@@H](OC)[C@H](C)S(=O)(=O)Nc2nnc(-c3cccc(OC)n3)n2C2CC2)cn1` [Example 121.0], the EC50 amounted to 21 nM.

Consider `COc1cccc(-c2nnc(NS(=O)(=O)[C@@H](C)[C@@H](OC(C)C)c3ncc(C)cn3)n2[C@@H](C)c2nc(C)no2)n1` (single isomer, unassigned) [Example 240.0, (1S,2S)-N-(5-(6-methoxy-2-pyridinyl)-4-((1S)-1-(3-methyl-1,2,4-oxadiazol-5-yl)ethyl)-4H-1,2,4-triazol-3-yl)-1-(5-methyl-2-pyrimidinyl)-1-(2-propanyloxy)-2-propanesulfonamide or (1S,2S)-N-(5-(6-methoxy-2-pyridinyl)-4-((1R)-1-(3-methyl-1,2,4-oxadiazol-5-yl)ethyl)-4H-1,2,4-triazol-3-yl)-1-(5-methyl-2-pyrimidinyl)-1-(2-propanyloxy)-2-propanesulfonamide], for which the 50% effective concentration (EC50) turned out to be 2 nM.

In the case of `COCC1(n2c(NS(=O)(=O)[C@@H](C)[C@H](OC)c3ncc(Cl)cn3)nnc2-c2ccccn2)CC1` [Example 61.0], the EC50 turned out to be 0.89 nM.

Consider `COc1cccc(-c2nnc(NS(=O)(=O)[C@@H](C)[C@H](C)c3ncc(Cl)cn3)n2[C@@H](C)c2nc(C)no2)n1` (single isomer, unassigned) [Example 247.0, (2S,3R)-3-(5-chloro-2-pyrimidinyl)-N-(5-(6-methoxy-2-pyridinyl)-4-((1R)-1-(3-methyl-1,2,4-oxadiazol-5-yl)ethyl)-4H-1,2,4-triazol-3-yl)-2-butanesulfonamide or (2S,3R)-3-(5-chloro-2-pyrimidinyl)-N-(5-(6-methoxy-2-pyridinyl)-4-((1S)-1-(3-methyl-1,2,4-oxadiazol-5-yl)ethyl)-4H-1,2,4-triazol-3-yl)-2-butanesulfonamide], for which the EC50 was 5.3 nM.

As for `CC[C@H]([C@@H]1CCCCO1)n1c(NS(=O)(=O)[C@@H](C)[C@H](OC)c2ncc(C)cn2)nnc1-c1cccc(OC)n1` (single isomer, unassigned) [Example 329.0], the EC50 turned out to be 1.4 nM.

Turning to “(1R,2S)-1-(5-chloropyrimidin-2-yl)-1-methoxy-N-(5-(6-methoxypyridin-2-yl)-4-(((S)-oxetan-2-yl)methyl)-4H-1,2,4-triazol-3-yl)propane-2-sulfonamide or (1R,2S)-1-(5-chloropyrimidin-2-yl)-1-methoxy-N-(5-(6-methoxypyridin-2-yl)-4-(((R)-oxetan-2-yl)methyl)-4H-1,2,4-triazol-3-yl)propane-2-sulfonamide [Example 140.0]”, the EC50 was 42 nM.

As to `COc1cccc(-c2nnc(NS(=O)(=O)[C@@H](C)[C@@H](OC(C)C)c3ncc(C)cn3)n2[C@H](C)[C@@H]2CCCCO2)n1` (single isomer, unassigned) [Example 321.0], the EC50 was 12 nM.

For the molecule `CC[C@H]([C@@H]1CCCCO1)n1c(NS(=O)(=O)[C@@H](C)[C@H](OC)c2ncc(C)cn2)nnc1-c1cncc(C)c1` (single isomer, unassigned) [Example 334.0], the EC50 was 29 nM.

As for `CCc1cc(Cn2c(NS(=O)(=O)[C@@H](C)[C@@H](OC(C)C)c3ncc(C)cn3)nnc2-c2cccc(OC)n2)on1` [Example 294.0, (1S,2S)-N-(4-((3-ethylisoxazol-5-yl)methyl)-5-(6-methoxypyridin-2-yl)-4H-1,2,4-triazol-3-yl)-1-isopropoxy-1-(5-methylpyrimidin-2-yl)propane-2-sulfonamide], the EC50 worked out at 5.4 nM.

For `CO[C@H](c1ncc(Cl)cn1)[C@H](C)S(=O)(=O)Nc1nnc(-c2ccccn2)n1C(C1CC1)C1CC1` [Example 46.0], the concentration for a half-maximal effect (EC50) is 0.33 nM.

In the case of `COc1cccc(-c2nnc(NS(=O)(=O)[C@@H](C)[C@H](OC)c3ncc(Cl)cn3)n2CCc2cccnc2)n1` [Example 284.0, (1R,2S)-1-(5-chloropyrimidin-2-yl)-1-methoxy-N-(5-(6-methoxypyridin-2-yl)-4-(2-(pyridin-3-yl)ethyl)-4H-1,2,4-triazol-3-yl)propane-2-sulfonamide], the EC50 was determined as 120 nM.

`CC[C@H](c1cc(F)cc(F)c1)n1c(NS(=O)(=O)[C@@H](C)[C@H](OC)c2ncc(Cl)cn2)nnc1-c1cccc(OC)n1` (single isomer, unassigned) [Example 343.0, (1R,2S)-1-(5-chloropyrimidin-2-yl)-N-(4-((R)-1-(3,5-difluorophenyl)propyl)-5-(6-methoxypyridin-2-yl)-4H-1,2,4-triazol-3-yl)-1-methoxypropane-2-sulfonamide or (1R,2S)-1-(5-chloropyrimidin-2-yl)-N-(4-((S)-1-(3,5-difluorophenyl)propyl)-5-(6-methoxypyridin-2-yl)-4H-1,2,4-triazol-3-yl)-1-methoxypropane-2-sulfonamide]: the EC50 came to 0.1 nM.

As for `COCC(COC)n1c(NS(=O)(=O)[C@@H](C)[C@@H](OC(C)C)c2ncc(OC)cn2)nnc1-c1cccc(OC)n1` [Example 172.0, (1S,2S)-N-(4-(1,3-dimethoxy-2-propanyl)-5-(6-methoxy-2-pyridinyl)-4H-1,2,4-triazol-3-yl)-1-(5-methoxy-2-pyrimidinyl)-1-(2-propanyloxy)-2-propanesulfonamide], the concentration giving a half-maximal response (EC50) is 1.4 nM.

As for `CC[C@@H](c1conc1C)n1c(NS(=O)(=O)[C@@H](C)[C@H](C)c2ncc(Cl)cn2)nnc1-c1cccc(OC)n1` (single isomer, unassigned) [Example 232.0, (2S,3R)-3-(5-chloro-2-pyrimidinyl)-N-(5-(6-methoxy-2-pyridinyl)-4-((1R)-1-(3-methyl-1,2-oxazol-4-yl)propyl)-4H-1,2,4-triazol-3-yl)-2-butanesulfonamide or (2S,3R)-3-(5-chloro-2-pyrimidinyl)-N-(5-(6-methoxy-2-pyridinyl)-4-((1S)-1-(3-methyl-1,2-oxazol-4-yl)propyl)-4H-1,2,4-triazol-3-yl)-2-butanesulfonamide], the EC50 was 1.5 nM.

The values are drawn from patent publication US10689367B2, “Triazole pyridyl compounds as agonists of the APJ receptor” (AMGEN INC., priority 2016, dated 2020).
